# Assay results: patent US20250296959A1, “B7-H3 TARGETING PEPTIDES AND CONSTRUCTS THEREOF” (Mariana Oncology Inc., priority 2024, published 2025)
# Positions of bridges follow the written chain, without caps; N, C: chain ends. Non-standard residues stand in square brackets, D forms with d. Residues, ends and D or L forms follow the SMILES beside them. ξ: configuration not given here. *: point of attachment. DOTA = O=C(O)CN1CCN(CC(=O)O)CCN(CC(=O)*)CCN(CC(=O)O)CC1; Trp(5-F) = N[C@@H](Cc1c[nH]c2ccc(F)cc12)C(=O)O; Trp(7-aza) = N[C@@H](Cc1c[nH]c2ncccc12)C(=O)O; Trp(1-Me) = Cn1cc(C[C@H](N)C(=O)O)c2ccccc21; 1Nal = N[C@@H](Cc1cccc2ccccc12)C(=O)O; 2Nal = N[C@@H](Cc1ccc2ccccc2c1)C(=O)O; Val(3-OH) = CC(C)(O)[C@H](N)C(=O)O; aIle = CC[C@@H](C)[C@H](N)C(=O)O; Gly(cPr) = N[C@H](C(=O)O)C1CC1; aThr = C[C@H](O)[C@H](N)C(=O)O; hLeu = CC(C)CC[C@H](N)C(=O)O; Nle = CCCC[C@H](N)C(=O)O; Dab = NCC[C@H](N)C(=O)O; ξV = CC(C)C(N)C(=O)O
# Biological target: T1, human 4lg B7-H3 (Homo sapiens, UniProt Q5ZPR3)
# T1 sequence (Q5ZPR3 29-534): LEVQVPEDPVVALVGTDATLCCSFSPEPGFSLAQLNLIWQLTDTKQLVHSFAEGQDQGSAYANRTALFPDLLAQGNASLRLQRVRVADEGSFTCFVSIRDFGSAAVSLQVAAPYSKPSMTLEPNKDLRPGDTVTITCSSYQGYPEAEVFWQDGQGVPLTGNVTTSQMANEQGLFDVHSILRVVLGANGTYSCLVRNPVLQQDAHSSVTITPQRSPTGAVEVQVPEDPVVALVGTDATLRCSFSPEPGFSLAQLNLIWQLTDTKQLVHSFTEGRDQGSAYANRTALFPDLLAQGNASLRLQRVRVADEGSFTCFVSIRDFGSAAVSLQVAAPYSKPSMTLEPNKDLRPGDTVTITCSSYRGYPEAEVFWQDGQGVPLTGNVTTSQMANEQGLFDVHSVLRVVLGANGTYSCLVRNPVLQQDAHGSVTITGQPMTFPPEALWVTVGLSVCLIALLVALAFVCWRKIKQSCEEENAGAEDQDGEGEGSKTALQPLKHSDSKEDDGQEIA
# Assay: Affinity determination by surface plasmon resonance (SPR) to 4Ig B7-H3
# Conditions: SPR KD—25° C., 4Ig B7-H3; 25° C. flow cell temperature
row,SMILES,Kd
1,"CC[C@@H](C)[C@@H]1NC(=O)[C@@H](NC(=O)[C@H](Cc2ccc(O)cc2)NC(=O)[C@H](CCC(C)C)NC(C)=O)CSSC[C@@H](C(=O)N[C@@H](Cc2c[nH]c3ccccc23)C(=O)N[C@@H](Cc2ccccc2)C(=O)N[C@H](C(=O)N[C@H](CCCCNC(=O)CN2CCN(CC(=O)O)CCN(CC(=O)O)CCN(CC(=O)O)CC2)C(N)=O)[C@@H](C)O)NC(=O)[C@H](Cc2ccc(O)cc2)NC(=O)[C@H](C(C)C)NC(=O)[C@H](CC(=O)O)NC(=O)[C@H](Cc2ccc(O)cc2)NC(=O)[C@H](CCCCN)NC(=O)CNC1=O [compound 121, Ac-hLeu-Y-C-allolle-G-K-Y-D-V-Y-C-W-F-Thr-dLys(DOTA)-CONH2] (Ac-[hLeu]YC[aIle]GKYDVYCWFT[dK](DOTA)-NH2; disulfide 3-11)",1 to 10 nM
2,"CC(=O)N[C@@H](CCC(C)C)C(=O)N[C@@H](Cc1ccc(O)cc1)C(=O)N[C@H]1CSSC[C@@H](C(=O)N[C@@H](Cc2c[nH]c3ccccc23)C(=O)N[C@@H](Cc2ccccc2)C(=O)N[C@H](C(=O)N[C@H](CCCCNC(=O)CN2CCN(CC(=O)O)CCN(CC(=O)O)CCN(CC(=O)O)CC2)C(N)=O)[C@@H](C)O)NC(=O)[C@H](Cc2ccc(O)cc2)NC(=O)[C@H](C(C)C)NC(=O)[C@H](CC(=O)O)NC(=O)[C@H](Cc2ccc(O)cc2)NC(=O)[C@H](CCCCN)NC(=O)CNC(=O)[C@H](C(C)(C)O)NC1=O [compound 122, Ac-hLeu-Y-C-hydroVal-G-K-Y-D-V-Y-C-W-F-Thr-dLys(DOTA)-CONH2] (Ac-[hLeu]YC[Val(3-OH)]GKYDVYCWFT[dK](DOTA)-NH2; disulfide 3-11)",10 to 100 nM
3,"CCCC[C@H](NC(C)=O)C(=O)N[C@@H](Cc1ccc(O)cc1)C(=O)N[C@H]1CSSC[C@@H](C(=O)N[C@@H](Cc2cccc3ccccc23)C(=O)N[C@@H](Cc2ccccc2)C(=O)N[C@H](C(=O)N[C@H](CCCCNC(=O)CN2CCN(CC(=O)O)CCN(CC(=O)O)CCN(CC(=O)O)CC2)C(N)=O)[C@@H](C)O)NC(=O)[C@H](Cc2ccc(O)cc2)NC(=O)C(C(C)C)NC(=O)[C@H](CC(=O)O)NC(=O)[C@H](Cc2ccc(O)cc2)NC(=O)[C@H](CCCCN)NC(=O)CNC(=O)[C@H](C(C)C)NC1=O (stereo partly drawn) [compound 128, Ac-Nle-Y-C-V-G-K-Y-D-V-Y-C-1Nal-F-Thr-dLys(DOTA)-CONH2] (Ac-[Nle]YCVGKYD[ξV]YC[1Nal]FT[dK](DOTA)-NH2; disulfide 3-11)",1 to 10 nM
4,"CCCC[C@H](NC(C)=O)C(=O)N[C@@H](Cc1ccc(O)cc1)C(=O)N[C@H]1CSSC[C@@H](C(=O)N[C@@H](Cc2ccc3ccccc3c2)C(=O)N[C@@H](Cc2ccccc2)C(=O)N[C@H](C(=O)N[C@H](CCCCNC(=O)CN2CCN(CC(=O)O)CCN(CC(=O)O)CCN(CC(=O)O)CC2)C(N)=O)[C@@H](C)O)NC(=O)[C@H](Cc2ccc(O)cc2)NC(=O)C(C(C)C)NC(=O)[C@H](CC(=O)O)NC(=O)[C@H](Cc2ccc(O)cc2)NC(=O)[C@H](CCCCN)NC(=O)CNC(=O)[C@H](C(C)C)NC1=O (stereo partly drawn) [compound 129, Ac-Nle-Y-C-V-G-K-Y-D-V-Y-C-2Nal-F-Thr-dLys(DOTA)-CONH2] (Ac-[Nle]YCVGKYD[ξV]YC[2Nal]FT[dK](DOTA)-NH2; disulfide 3-11)",100 to 300 nM
5,"CCCC[C@H](NC(C)=O)C(=O)N[C@@H](Cc1ccc(O)cc1)C(=O)N[C@H]1CSSC[C@@H](C(=O)N[C@@H](Cc2c[nH]c3ccccc23)C(=O)N[C@@H](Cc2ccccc2)C(=O)N[C@@H](CCN)C(=O)N[C@H](CCCCNC(=O)CN2CCN(CC(=O)O)CCN(CC(=O)O)CCN(CC(=O)O)CC2)C(N)=O)NC(=O)[C@H](Cc2ccc(O)cc2)NC(=O)[C@H](C(C)C)NC(=O)[C@H](CC(=O)O)NC(=O)[C@H](Cc2ccc(O)cc2)NC(=O)[C@H](CCCCN)NC(=O)CNC(=O)[C@H](C(C)C)NC1=O [compound 131, Ac-Nle-Y-C-V-G-K-Y-D-V-Y-C-W-F-Dab-dLys(DOTA)-CONH2] (Ac-[Nle]YCVGKYDVYCWF[Dab][dK](DOTA)-NH2; disulfide 3-11)",10 to 100 nM
6,"CCCC[C@H](NC(C)=O)C(=O)N[C@@H](Cc1ccc(O)cc1)C(=O)N[C@H]1CSSC[C@@H](C(=O)N[C@@H](Cc2cn(C)c3ccccc23)C(=O)N[C@@H](Cc2ccccc2)C(=O)N[C@H](C(=O)N[C@H](CCCCNC(=O)CN2CCN(CC(=O)O)CCN(CC(=O)O)CCN(CC(=O)O)CC2)C(N)=O)[C@@H](C)O)NC(=O)[C@H](Cc2ccc(O)cc2)NC(=O)[C@H](C(C)C)NC(=O)[C@H](CC(=O)O)NC(=O)[C@H](Cc2ccc(O)cc2)NC(=O)[C@H](CCCCN)NC(=O)CNC(=O)[C@H](C(C)C)NC1=O [compound 132, Ac-Nle-Y-C-V-G-K-Y-D-V-Y-C-Trp(Me)-F-Thr-dLys(DOTA)-CONH2] (Ac-[Nle]YCVGKYDVYC[Trp(1-Me)]FT[dK](DOTA)-NH2; disulfide 3-11)",1 to 10 nM
7,"CCCC[C@H](NC(C)=O)C(=O)N[C@@H](Cc1ccc(O)cc1)C(=O)N[C@H]1CSSC[C@@H](C(=O)N[C@@H](Cc2c[nH]c3ccc(F)cc23)C(=O)N[C@@H](Cc2ccccc2)C(=O)N[C@H](C(=O)N[C@H](CCCCNC(=O)CN2CCN(CC(=O)O)CCN(CC(=O)O)CCN(CC(=O)O)CC2)C(N)=O)[C@@H](C)O)NC(=O)[C@H](Cc2ccc(O)cc2)NC(=O)[C@H](C(C)C)NC(=O)[C@H](CC(=O)O)NC(=O)[C@H](Cc2ccc(O)cc2)NC(=O)[C@H](CCCCN)NC(=O)CNC(=O)[C@H](C(C)C)NC1=O [compound 133, Ac-Nle-Y-C-V-G-K-Y-D-V-Y-C-5FW-F-Thr-dLys(DOTA)-CONH2] (Ac-[Nle]YCVGKYDVYC[Trp(5-F)]FT[dK](DOTA)-NH2; disulfide 3-11)",1 to 10 nM
8,"CCCC[C@H](NC(C)=O)C(=O)N[C@@H](Cc1ccc(O)cc1)C(=O)N[C@H]1CSSC[C@@H](C(=O)N[C@@H](Cc2c[nH]c3ncccc23)C(=O)N[C@@H](Cc2ccccc2)C(=O)N[C@H](C(=O)N[C@H](CCCCNC(=O)CN2CCN(CC(=O)O)CCN(CC(=O)O)CCN(CC(=O)O)CC2)C(N)=O)[C@@H](C)O)NC(=O)[C@H](Cc2ccc(O)cc2)NC(=O)[C@H](C(C)C)NC(=O)[C@H](CC(=O)O)NC(=O)[C@H](Cc2ccc(O)cc2)NC(=O)[C@H](CCCCN)NC(=O)CNC(=O)[C@H](C(C)C)NC1=O [compound 134, Ac-Nle-Y-C-V-G-K-Y-D-V-Y-C-7NW-F-Thr-dLys(DOTA)-CONH2] (Ac-[Nle]YCVGKYDVYC[Trp(7-aza)]FT[dK](DOTA)-NH2; disulfide 3-11)",10 to 100 nM

# The remaining lines, values ahead:
row,Kd,SMILES
1,1 to 10 nM,"CC(=O)N[C@@H](CCC(C)C)C(=O)N[C@@H](Cc1ccc(O)cc1)C(=O)N[C@H]1CSSC[C@@H](C(=O)N[C@@H](Cc2c[nH]c3ccccc23)C(=O)N[C@@H](Cc2ccccc2)C(=O)N[C@H](C(=O)N[C@H](CCCCNC(=O)CN2CCN(CC(=O)O)CCN(CC(=O)O)CCN(CC(=O)O)CC2)C(N)=O)[C@@H](C)O)NC(=O)[C@H](Cc2ccc(O)cc2)NC(=O)[C@H](C2CC2)NC(=O)[C@H](CC(=O)O)NC(=O)[C@H](Cc2ccc(O)cc2)NC(=O)[C@H](CCCCN)NC(=O)CNC(=O)[C@H](C(C)C)NC1=O [compound 123, Ac-hLeu-Y-C-V-G-K-Y-D-Cpg-Y-C-W-F-Thr-dLys(DOTA)-CONH2] (Ac-[hLeu]YCVGKYD[Gly(cPr)]YCWFT[dK](DOTA)-NH2; disulfide 3-11)"
2,100 to 300 nM,"CC(=O)N[C@@H](CCC(C)C)C(=O)N[C@@H](Cc1ccc(O)cc1)C(=O)N[C@H]1CSSC[C@@H](C(=O)N[C@@H](Cc2c[nH]c3ccccc23)C(=O)N[C@@H](Cc2ccccc2)C(=O)N[C@H](C(=O)N[C@H](CCCCNC(=O)CN2CCN(CC(=O)O)CCN(CC(=O)O)CCN(CC(=O)O)CC2)C(N)=O)[C@@H](C)O)NC(=O)[C@H](Cc2ccc(O)cc2)NC(=O)[C@H]([C@H](C)O)NC(=O)[C@H](CC(=O)O)NC(=O)[C@H](Cc2ccc(O)cc2)NC(=O)[C@H](CCCCN)NC(=O)CNC(=O)[C@H](C(C)C)NC1=O [compound 125, Ac-hLeu-Y-C-V-G-K-Y-D-alloThr-Y-C-W-F-Thr-dLys(DOTA)-CONH2] (Ac-[hLeu]YCVGKYD[aThr]YCWFT[dK](DOTA)-NH2; disulfide 3-11)"
3,< 1 nM,"CC[C@@H](C)[C@@H]1NC(=O)[C@H](CC(=O)O)NC(=O)[C@H](Cc2ccc(O)cc2)NC(=O)[C@H](CCCCN)NC(=O)CNC(=O)[C@H](C(C)C)NC(=O)[C@@H](NC(=O)[C@H](Cc2ccc(O)cc2)NC(=O)[C@H](CCC(C)C)NC(C)=O)CSSC[C@@H](C(=O)N[C@@H](Cc2c[nH]c3ccccc23)C(=O)N[C@@H](Cc2ccccc2)C(=O)N[C@H](C(=O)N[C@H](CCCCNC(=O)CN2CCN(CC(=O)O)CCN(CC(=O)O)CCN(CC(=O)O)CC2)C(N)=O)[C@@H](C)O)NC(=O)[C@H](Cc2ccc(O)cc2)NC1=O [compound 126, Ac-hLeu-Y-C-V-G-K-Y-D-allolle-Y-C-W-F-Thr-dLys(DOTA)-CONH2] (Ac-[hLeu]YCVGKYD[aIle]YCWFT[dK](DOTA)-NH2; disulfide 3-11)"
4,100 to 300 nM,"CC(=O)N[C@@H](CCC(C)C)C(=O)N[C@@H](Cc1ccc(O)cc1)C(=O)N[C@H]1CSSC[C@@H](C(=O)N[C@@H](Cc2c[nH]c3ccccc23)C(=O)N[C@@H](Cc2ccccc2)C(=O)N[C@H](C(=O)N[C@H](CCCCNC(=O)CN2CCN(CC(=O)O)CCN(CC(=O)O)CCN(CC(=O)O)CC2)C(N)=O)[C@@H](C)O)NC(=O)[C@H](Cc2ccc(O)cc2)NC(=O)[C@H](C(C)(C)O)NC(=O)[C@H](CC(=O)O)NC(=O)[C@H](Cc2ccc(O)cc2)NC(=O)[C@H](CCCCN)NC(=O)CNC(=O)[C@H](C(C)C)NC1=O [compound 127, Ac-hLeu-Y-C-V-G-K-Y-D-hydroVal-Y-C-W-F-Thr-dLys(DOTA)-CONH2] (Ac-[hLeu]YCVGKYD[Val(3-OH)]YCWFT[dK](DOTA)-NH2; disulfide 3-11)"
